Assay [1] addresses Melanocyte-stimulating hormone receptor (Mus musculus) (UniProt Q01727). Kind of assay: Agonist activity at mouse MC1R expressed in HEK293 cells assessed as forskolin-stimulated response at 100 uM by beta-galactosidase reporter gene assay relative to forskolin. It is filed as functional, cell-based.
Another assay has as its target Melanocortin receptor 3 (Mus musculus, UniProt P33033). Put plainly: Agonist activity at mouse MC3R expressed in HEK293 cells assessed as forskolin-stimulated response by beta-galactosidase reporter gene assay. It counts as functional, cell-based.
A further assay has as its target Melanocortin receptor 5 (Mus musculus, UniProt P41149). Put plainly: Agonist activity at mouse MC5R expressed in HEK293 cells assessed as forskolin-stimulated response by beta-galactosidase reporter gene assay. It counts as functional, cell-based.
The next assay concerns the target Melanocortin receptor 4 (Mus musculus, UniProt P56450). Kind of assay: Agonist activity at mouse MC4R expressed in HEK293 cells assessed as forskolin-stimulated response by beta-galactosidase reporter gene assay. It counts as functional, cell-based.
Assay [2] concerns the target Melanocyte-stimulating hormone receptor (Mus musculus, UniProt Q01727). Kind of assay: Agonist activity at mouse MC1R expressed in HEK293 cells assessed as forskolin-stimulated response by beta-galactosidase reporter gene assay. It counts as functional, cell-based.
For assay [3], the target named is Melanocortin receptor 4 (Mus musculus) (UniProt P56450). Put plainly: Agonist activity at mouse MC4R expressed in HEK293 cells assessed as forskolin-stimulated response at 100 uM by beta-galactosidase reporter gene assay relative to forskolin. It is filed as functional, cell-based.
Assay [4] deals with Melanocortin receptor 3 (Mus musculus) (UniProt P33033). Put plainly: Agonist activity at mouse MC3R expressed in HEK293 cells assessed as forskolin-stimulated response at 100 uM by beta-galactosidase reporter gene assay relative to forskolin. It is filed as functional, cell-based.
Assay [5] concerns the target Melanocortin receptor 5 (Mus musculus) (UniProt P41149). Put plainly: Agonist activity at mouse MC5R expressed in HEK293 cells assessed as forskolin-stimulated response at 10 uM by beta-galactosidase reporter gene assay relative to forskolin. It is filed as functional, cell-based.
Assay [6] has the same target. Kind of assay: Agonist activity at mouse MC5R expressed in HEK293 cells assessed as forskolin-stimulated response at 100 uM by beta-galactosidase reporter gene assay relative to forskolin. It counts as functional, cell-based.
Assay [7] is filed under the species Mus musculus. Kind of assay: Selectivity for mouse MC1R over mouse MC3R.
The species named for assay [8] is Mus musculus. Put plainly: Selectivity for mouse MC1R over mouse MC4R.

Here are results for 13 compounds from ChEMBL document CHEMBL1143194, “The 1,4-benzodiazepine-2,5-dione small molecule template results in melanocortin receptor agonists with nanomolar potencies” (J Med Chem, 2008).

SMILES strings stand for the structures.

Chain of Melanocyte-stimulating hormone receptor (Q01727 whole entry): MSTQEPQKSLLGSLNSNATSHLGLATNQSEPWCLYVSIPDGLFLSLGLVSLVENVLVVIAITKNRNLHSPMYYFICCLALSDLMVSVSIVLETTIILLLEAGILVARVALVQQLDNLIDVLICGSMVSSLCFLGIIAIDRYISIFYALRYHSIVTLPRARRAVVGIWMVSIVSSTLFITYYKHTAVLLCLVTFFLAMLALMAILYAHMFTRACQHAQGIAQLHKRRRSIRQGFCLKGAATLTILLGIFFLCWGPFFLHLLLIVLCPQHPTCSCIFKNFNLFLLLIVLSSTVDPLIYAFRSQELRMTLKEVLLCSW
Chain of Melanocortin receptor 3 (P33033 whole entry): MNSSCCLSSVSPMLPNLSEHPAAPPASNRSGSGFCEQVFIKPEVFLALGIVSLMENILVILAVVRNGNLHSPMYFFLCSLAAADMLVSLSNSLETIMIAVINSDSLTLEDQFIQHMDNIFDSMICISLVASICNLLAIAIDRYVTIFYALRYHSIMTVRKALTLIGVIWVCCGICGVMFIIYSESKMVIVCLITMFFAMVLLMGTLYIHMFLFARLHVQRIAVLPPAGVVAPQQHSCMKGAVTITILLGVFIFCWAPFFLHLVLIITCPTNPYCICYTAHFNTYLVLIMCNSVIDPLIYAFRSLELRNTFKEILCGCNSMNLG
Chain of Melanocortin receptor 5 (P41149 whole entry): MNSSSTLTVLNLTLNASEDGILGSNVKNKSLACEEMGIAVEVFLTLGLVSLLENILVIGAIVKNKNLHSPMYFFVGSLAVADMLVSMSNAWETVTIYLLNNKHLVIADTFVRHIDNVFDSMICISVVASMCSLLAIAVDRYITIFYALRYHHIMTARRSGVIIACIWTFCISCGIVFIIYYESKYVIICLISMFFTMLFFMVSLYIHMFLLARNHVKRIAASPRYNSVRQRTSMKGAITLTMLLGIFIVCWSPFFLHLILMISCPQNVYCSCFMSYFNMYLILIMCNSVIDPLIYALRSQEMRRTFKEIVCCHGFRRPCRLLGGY
Chain of Melanocortin receptor 4 (P56450 whole entry): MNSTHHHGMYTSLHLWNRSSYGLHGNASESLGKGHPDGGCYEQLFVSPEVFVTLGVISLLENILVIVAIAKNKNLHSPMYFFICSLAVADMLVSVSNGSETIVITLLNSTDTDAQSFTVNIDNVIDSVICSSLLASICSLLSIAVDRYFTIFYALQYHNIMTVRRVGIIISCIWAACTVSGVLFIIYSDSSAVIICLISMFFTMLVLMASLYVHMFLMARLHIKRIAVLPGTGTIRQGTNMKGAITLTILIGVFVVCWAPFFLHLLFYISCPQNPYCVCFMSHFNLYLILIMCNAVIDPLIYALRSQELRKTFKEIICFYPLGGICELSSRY
Chain of Melanocortin receptor 4 (Mus musculus) (P56450 whole entry): as above
Chain of Melanocyte-stimulating hormone receptor (Mus musculus) (Q01727 whole entry, looked up): as the sequence (Q01727 whole entry) above
Chain of Melanocortin receptor 3 (Mus musculus) (P33033 whole entry): as the sequence (P33033 whole entry) above
Chain of Melanocortin receptor 5 (Mus musculus) (P41149 whole entry): as the sequence (P41149 whole entry) above

Turning to `CCCCN1C(=O)C(Cc2ccccc2)NC(=O)c2ccccc21` (stereo not given), the Activity in assay [1] was found to be 70%. The half-maximal effective concentration (EC50) on Melanocortin receptor 3, at Melanocortin receptor 5 and at Melanocortin receptor 4 was over 100 µM each time.

With `O=C1NC(Cc2ccccc2)C(=O)N(Cc2ccccc2)c2ccccc21` (stereo not given), the concentration for a half-maximal effect (EC50) in [2] is 32.9 µM; at Melanocortin receptor 3, over 100 µM; on Melanocortin receptor 5, over 100 µM; at Melanocortin receptor 4, over 100 µM.

Regarding `O=C1NC(Cc2c[nH]c3ccccc23)C(=O)N(Cc2ccccc2)c2ccccc21` (stereo not given), the Activity in assay [1] was determined as 70%. Moreover, the EC50 on Melanocortin receptor 3, at Melanocortin receptor 5 and at Melanocortin receptor 4 was over 100 µM in each case.

With `O=C1NC(Cc2ccccc2)C(=O)N(Cc2ccc3ccccc3c2)c2cc(Cl)ccc21` (stereo not given), the figures for the EC50 (in assay [2]; on Melanocortin receptor 3; on Melanocortin receptor 5) were 4.7 µM, 23.3 µM and 4.35 µM, respectively. Also, the Activity in assay [3] amounted to 70%.

As for `NCCCCC1NC(=O)c2ccc(Cl)cc2N(Cc2ccc3ccccc3c2)C1=O` (stereo not given), the Activity is 30% in assay [4], 65% in assay [5] and 30% in assay [3]. Besides, the concentration giving a half-maximal response (EC50) in assay [2] was 3.4 µM.

`O=C1NC(Cc2ccccc2)C(=O)N(Cc2ccccc2-c2ccccc2)c2ccccc21` (stereo not given): the EC50 in assay [2] is 0.23 µM; at Melanocortin receptor 3 it was 4.16 µM; at Melanocortin receptor 4 it was 1.97 µM. The Activity in assay [6] was determined as 60%. The Ratio EC50 in the assay listed under Mus musculus [7] amounted to 18; in the assay listed under Mus musculus [8], 9.

On to `NCCCCC1NC(=O)c2ccc(Cl)cc2N(Cc2ccccc2)C1=O` (stereo not given), for which the concentration giving a half-maximal response (EC50) in assay [2] was 0.048 µM; on Melanocortin receptor 3, 0.32 µM; on Melanocortin receptor 5 it was 0.087 µM; at Melanocortin receptor 4, 0.24 µM.

With `Cc1cccc2c1N(Cc1ccccc1)C(=O)C(Cc1cn(Cc3ccccc3)c3ccccc13)NC2=O` (stereo not given), the EC50 in [2] is 21.6 µM; on Melanocortin receptor 3, over 100 µM; at Melanocortin receptor 5, over 100 µM; on Melanocortin receptor 4, over 100 µM.

Take `NC(N)=NCCCC1NC(=O)c2ccc(Cl)cc2N(Cc2ccccc2)C1=O` (stereo not given): the concentration giving a half-maximal response (EC50) in assay [2] was 1.8 µM; at Melanocortin receptor 3 it was 30.6 µM; at Melanocortin receptor 5 it was 17 µM.

In the case of `NC(N)=NCCCC1NC(=O)c2ccccc2N(Cc2ccccc2)C1=O` (stereo not given), the EC50 in assay [2] is 16.4 µM; at Melanocortin receptor 3, over 100 µM; on Melanocortin receptor 5, over 100 µM; on Melanocortin receptor 4, over 100 µM.

Turning to `O=C1NC(Cc2c[nH]c3ccccc23)C(=O)N(Cc2ccc3ccccc3c2)c2cc(Cl)ccc21` (stereo not given), the EC50 (in assay [2]; at Melanocortin receptor 3; at Melanocortin receptor 5; on Melanocortin receptor 4) was over 100 µM in each case.

On to `CCCN1C(=O)C(Cc2ccccc2)NC(=O)c2ccccc21` (stereo not given), for which the Activity in assay [4] was 80%. Moreover, the results for the EC50 (in assay [2]; on Melanocortin receptor 5; at Melanocortin receptor 4) were 6.9 µM, 3.27 µM and 35 µM, respectively.

Turning to `N=C(N)NCCCC1NC(=O)c2ccc(Cl)cc2N(Cc2ccccc2)C1=O` (stereo not given), the Activity in assay [3] came out at 60%.
